Assays:
Assay in all cases: relative viability (nuclei count vs DMSO), 5 days (fraction); higher = more cells survive
Vismodegib + Dasatinib = compound: CS(=O)(=O)c1ccc(C(=O)Nc2ccc(Cl)c(-c3ccccn3)c2)c(Cl)c1 [Vismodegib] + Cc1nc(Nc2ncc(C(=O)Nc3c(C)cccc3Cl)s2)cc(N2CCN(CCO)CC2)n1 [Dasatinib] (partner 0.075 µM)
Method in brief: (§1)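 The day after seeding in 1536-well plates, lung cancer cell lines were treated by pin tool with a single drug, or with a fixed anchor-drug dose together with five library-drug doses (not always all listed) in √10 steps. After 5 days, a combined fix-and-stain solution (final 0.05% Triton X-100, 1% formaldehyde, 1 ug/ml Hoechst) was added. Nuclei counted on 4× images gave relative viability as treated counts over vehicle counts, reported as the median of duplicate plates.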

Vismodegib + Trametinib = compound: CS(=O)(=O)c1ccc(C(=O)Nc2ccc(Cl)c(-c3ccccn3)c2)c(Cl)c1 [Vismodegib] + CC(=O)Nc1cccc(-n2c(=O)n(C3CC3)c(=O)c3c(Nc4ccc(I)cc4F)n(C)c(=O)c(C)c32)c1 [Trametinib] (partner 0.02 µM)
Method in brief: as §1

Vismodegib + Lapatinib = compound: CS(=O)(=O)c1ccc(C(=O)Nc2ccc(Cl)c(-c3ccccn3)c2)c(Cl)c1 [Vismodegib] + CS(=O)(=O)CCNCc1ccc(-c2ccc3ncnc(Nc4ccc(OCc5cccc(F)c5)c(Cl)c4)c3c2)o1 [Lapatinib] (partner 2 µM)
Method in brief: as §1

VE-821 + Lapatinib = compound: CS(=O)(=O)c1ccc(-c2cnc(N)c(C(=O)Nc3ccccc3)n2)cc1 [VE-821] + CS(=O)(=O)CCNCc1ccc(-c2ccc3ncnc(Nc4ccc(OCc5cccc(F)c5)c(Cl)c4)c3c2)o1 [Lapatinib] (partner 2 µM)
Method in brief: as §1

Cell Line | relative viability (Vismodegib + Dasatinib; first compound 0.08 µM) | relative viability (Vismodegib + Dasatinib; first compound 0.253 µM) | relative viability (Vismodegib + Dasatinib; first compound 0.8 µM) | relative viability (Vismodegib + Dasatinib; first compound 2.53 µM) | relative viability (Vismodegib + Dasatinib; first compound 8 µM) | relative viability (Vismodegib + Trametinib; first compound 0.08 µM) | relative viability (Vismodegib + Trametinib; first compound 0.253 µM) | relative viability (Vismodegib + Trametinib; first compound 0.8 µM) | relative viability (Vismodegib + Trametinib; first compound 8 µM) | relative viability (Vismodegib + Trametinib; first compound 2.53 µM) | relative viability (Vismodegib + Lapatinib; first compound 0.08 µM) | relative viability (Vismodegib + Lapatinib; first compound 0.253 µM) | relative viability (Vismodegib + Lapatinib; first compound 0.8 µM) | relative viability (Vismodegib + Lapatinib; first compound 2.53 µM) | relative viability (Vismodegib + Lapatinib; first compound 8 µM) | relative viability (VE-821 + Lapatinib; first compound 0.08 µM) | relative viability (VE-821 + Lapatinib; first compound 0.253 µM) | relative viability (VE-821 + Lapatinib; first compound 0.8 µM) | relative viability (VE-821 + Lapatinib; first compound 2.53 µM) | relative viability (VE-821 + Lapatinib; first compound 8 µM)
SW 900 | 0.669 | 0.543 | 0.585 | 0.763 | 0.536 | 0.801 | 0.73 | 1.1 | 0.921 | – | – | – | – | – | – | – | – | – | – | –
NCI-H358 | 0.149 | 0.183 | 0.193 | 0.172 | 0.161 | 0.151 | 0.139 | 0.14 | 0.139 | 0.128 | 0.471 | 0.505 | 0.422 | 0.518 | 0.461 | 0.445 | 0.376 | 0.486 | 0.553 | 0.489
ChaGo-K-1 | 0.718 | 0.672 | 0.622 | 0.583 | 0.632 | 0.849 | 0.904 | 0.919 | 0.796 | 0.781 | – | – | – | – | – | – | – | – | – | –
NCI-H1755 | 0.423 | 0.392 | 0.412 | 0.448 | 0.441 | 0.82 | 0.765 | 0.78 | 0.834 | 0.709 | 1 | 1 | 1.06 | 1.02 | 1.04 | 1.09 | 0.997 | 0.961 | 0.981 | 0.861
LCLC-103H | 0.579 | 0.517 | 0.471 | 0.4 | 0.458 | 0.703 | 0.666 | 0.65 | 0.71 | 0.612 | – | – | – | – | – | – | – | – | – | –
HCC-827 | 0.361 | 0.263 | 0.297 | 0.268 | 0.293 | 0.519 | 0.491 | 0.528 | 0.509 | 0.522 | 0.162 | 0.163 | 0.185 | 0.192 | 0.214 | 0.221 | 0.201 | 0.189 | 0.201 | 0.209
HCC-44 | – | – | – | – | – | 1.11 | 1.05 | 1.05 | 0.976 | 1.04 | 0.998 | 1.02 | 0.965 | 1.04 | 0.991 | 1.04 | 1.07 | 1.07 | 1.09 | 1.08
NCI-H727 | 0.307 | 0.345 | 0.342 | 0.308 | 0.364 | 0.446 | 0.367 | 0.405 | 0.418 | 0.403 | 0.814 | 0.653 | 0.585 | 0.826 | 0.874 | 1.02 | 0.755 | 0.804 | 0.714 | 0.436
NCI-H1563 | 0.455 | 0.443 | 0.477 | 0.495 | 0.454 | – | – | – | – | – | 0.849 | 0.878 | 0.901 | 0.892 | 0.966 | 0.92 | 0.981 | 0.812 | 0.912 | 0.792
NCI-H1650 | 0.276 | 0.347 | 0.339 | 0.258 | 0.291 | 0.621 | 0.522 | 0.643 | 0.666 | 0.606 | 0.704 | 0.767 | 0.666 | 0.806 | 0.748 | 0.845 | 0.749 | 0.705 | 0.757 | 0.45

Reference: the supplement of paper PMC10307832
